Holding throughout (type): cell-based
In assay [1] the test system is human breast cancer SKBR-3 cells. The assay can be described thus: Dose response of 1,4-naphthoquinone analogs in human breast cancer cells SKBR-3 (WST-1, 24 h). As to the method:
(§1) 100 microliters of human breast cancer SKBR-3 cells were plated at a density of 8000 cells/well in 96-well plates (triplicates) in growing medium containing 10% Fetal Bovine Serum, penicillin/streptomycin, and glutamine. The next day, increasing concentrations of a 1,4-naphthoquinone analog (diluted from 10 mM DMSO stock solutions) were added. DMSO used as solvent for all analogs, was kept constant through the 96-well plates. The control consisted of DMSO alone. The cells were subsequently incubated for 24 hours at 37° C. and 5% CO2 in normal cell growth conditions. Cell viability was assessed by adding 9 μL/well of WST-1 reagent (Clontech), which measured mitochondrial activity of live cells. […] The incubation time was 3 hours at 37° C. Optical density of the cell samples was measured at 460 nm, by using plate reader Spectra Max 250 (Molecular Devices). The drug was determined to be cytotoxic when OD values show an inverse correlation with analog concentrations.

Assay [2] relates to human fibrosarcoma HT1080 cells. The assay can be described thus: Dose response of 1,4-naphthoquinone analogs in human fibrosarcoma cells HT1080 (WST-1, 24 h). As to the method:
as §1, with “fibrosarcoma HT1080” for “breast cancer SKBR-3”
A general note: Tetrazolium dyes change colour on reduction, which living cells bring about.

Assay [3] relates to PTEN-P2/GFP prostate cancer cells. The assay can be described thus: Effect of 1,4-naphthoquinone analogs on PTEN-P2/GFP cell proliferation (WST-1 cell viability, 24 h). The settings on record: Mus musculus, WST-1, medium with 10% FBS and DHT, read-out: PTEN-P2/GFP cell proliferation, percent of control. As to the method: Cells are grown in phenol red-free DMEM medium containing 10% FBS, 2 mM L-glutamine, 100 U/ml penicillin/100 μg/ml streptomycin, insulin-selenium-transferrin (5 μg/ml insulin), and DHT 10^−8M final. Androgen withdrawal is achieved by not adding DHT to the medium. Cells are maintained in a humidified incubator at 37° C. and 5% CO2. G418 (100 μg/ml) is added to maintain stable expression of H2B-GFP.
as §1, with “PTEN-P2/GFP prostate” for “human breast”, “cancer” for “cancer SKBR-3”, “Serum” for “Serum, penicillin/streptomycin,”, “DHT.” for “glutamine.”, “concentrations. The results are shown in TABLES 3.1-3.4, FIGS. 2A-2E, and FIGS. 3A-3D.” for “concentrations.”

These results are taken from patent US10577315B2, “Compositions and methods for treatment of prostate carcinoma” (Pellficure Pharmaceuticals, Inc., priority 2014, dated 2020).

Turning to `COc1ccc(OC2=CC(=O)c3ccccc3C2=O)cc1` [Analog F05, 2-(4-methoxyphenoxy)-1,4-naphthoquinone], the “human SKBR-3 cell proliferation, percent of control” value is on record as 151.35% of control in assay [1] (1.2 μM); 144.41% of control in assay [1] (2.5 μM); 120.15% of control in assay [1] (5 μM); 94.14% of control in assay [1] (7.5 μM); 17.05% of control in assay [1] (10 μM); 1.91% of control in assay [1] (15 μM). In assay [1] (20 μM), the “human SKBR-3 cell proliferation, percent of control” value is given as 2.99% of control. Moreover, the “proliferation of human fibrosarcoma HT1080 cells, percent of control” value in assay [2] (1.2 μM) is on record as 81.04% of control; in assay [2] (2.5 μM), 76.27% of control; in assay [2] (5 μM), 67.81% of control; in assay [2] (7.5 μM) it was 67.85% of control; in assay [2] (10 μM), 66.08% of control; in assay [2] (15 μM) it was 55.00% of control. Moreover, in assay [2] (20 μM), the “proliferation of human fibrosarcoma HT1080 cells, percent of control” value is listed as 56.04% of control. Besides, the activity at 1.2 µM in assay [3] was 102%. Moreover, the activity at 2.5 µM in assay [3] worked out at 113%. The activity at 5 µM in assay [3] was 56.1%. Also, the activity at 7.5 µM in assay [3] turned out to be 8.83%. In addition, the activity at 10 µM in assay [3] is 1.32%. For the same compound, in assay [3], the activity at 15 µM came out at 0.77%. Besides, the activity at 20 µM in assay [3] came out at 3.41%.

As for `O=C1C(Oc2ccc(O)cc2)=C(Oc2ccc(O)cc2)C(=O)c2ccccc21` [Analog F24, 2,3-bis(4-hydroxyphenoxy)-1,4-naphthoquinone], in assay [3], the activity at 1.2 µM is 111%, the activity at 2.5 µM came to 87.1%, the activity at 5 µM was 57.6% and the activity at 7.5 µM was 30.9%. In assay [3], the activity at 10 µM is 8.07%, the activity at 15 µM came out at 6.73% and the activity at 20 µM is 3.73%.

Consider `CC(=O)NC1=C(Oc2ccc(Cl)cc2)C(=O)c2ccccc2C1=O` [Analog F39, N-(3-(4-chlorophenoxy)-1,4-dioxo-1,4-dihydronaphthalen-2-yl)acetamide], for which, in assay [3], the activity at 2 µM came out at 102%, the activity at 3 µM came out at 82.2%, the activity at 4 µM stood at 70.6% and the activity at 5 µM is 57.5%. For the same compound, in assay [3], the activity at 6 µM is 41.5%, the activity at 7 µM came out at 29.4%, the activity at 10 µM stood at 14.3% and the activity at 15 µM was 12%. Further, the activity at 25 µM in assay [3] stood at 12.7%.

For the compound `O=C1C=C(Oc2ccc(Cl)cc2Cc2ccccc2)C(=O)c2ccccc21` [Analog F13, 2-(2-benzyl-4-chlorophenoxy)naphthalene-1,4-dione], in assay [3], the activity at 1.2 µM is 129%, the activity at 2.5 µM turned out to be 119%, the activity at 5 µM stood at 60.5% and the activity at 7.5 µM turned out to be 17.5%. For the same compound, in assay [3], the activity at 10 µM was 1.69%, the activity at 15 µM is 2.19% and the activity at 20 µM turned out to be 2.53%.

`CC(=O)NC1=C(Oc2ccc(OCc3ccccc3)cc2)C(=O)c2ccccc2C1=O` [Analog F42, N-(3-(4-(benzyloxy)phenoxy)-1,4-dioxo-1,4-dihydronaphthalen-2-yl)acetamide]: in assay [3], the activity at 2 µM came to 101%, the activity at 3 µM amounted to 101%, the activity at 4 µM turned out to be 97.6% and the activity at 5 µM was 89.1%. Moreover, in assay [3], the activity at 6 µM is 83.8%, the activity at 7 µM came out at 75.3%, the activity at 10 µM was 37.5% and the activity at 15 µM was 20.2%. Moreover, in assay [3], the activity at 25 µM was found to be 16.6%.

On to `CC(=O)NC1=C(Cl)C(=O)c2ccccc2C1=O` [Analog F37, 2-N-acetylamino-3-chloro-1,4-naphthoquinone], for which, in assay [3], the activity at 2 µM is 101%, the activity at 3 µM stood at 94.4%, the activity at 4 µM worked out at 86.6% and the activity at 5 µM amounted to 71.4%. Further, in assay [3], the activity at 6 µM was determined as 55.7%, the activity at 7 µM worked out at 36.7%, the activity at 10 µM stood at 17.6% and the activity at 15 µM was found to be 13.9%. Besides, in assay [3], the activity at 25 µM stood at 13.6%.

Turning to `COc1ccc(OC2=C(NC(C)=O)C(=O)c3ccccc3C2=O)cc1` [Analog F41, N-(3-(4-methoxyphenoxy)-1,4-dioxo-1,4-dihydronaphthalen-2-yl)acetamide], in assay [3], the activity at 2 µM stood at 95.1%, the activity at 3 µM worked out at 89.8%, the activity at 4 µM stood at 84.5% and the activity at 5 µM is 75%. Also, in assay [3], the activity at 6 µM was found to be 69.6%, the activity at 7 µM came out at 63.9%, the activity at 10 µM was determined as 36.9% and the activity at 15 µM came out at 13.5%. Also, in assay [3], the activity at 25 µM was determined as 12.6%.

As for `O=C1C(Br)=C(Oc2ccc(OC3=C(Br)C(=O)c4ccccc4C3=O)cc2)C(=O)c2ccccc21` [Analog F57, 3,3′-(1,4-phenylenebis(oxy))bis(2-bromonaphthalene-1,4-dione)], in assay [3], the activity at 2 µM worked out at 98.2%, the activity at 3 µM came out at 98%, the activity at 4 µM is 98.6% and the activity at 5 µM turned out to be 98.9%. Also, in assay [3], the activity at 6 µM is 95.7%, the activity at 7 µM came out at 86.7%, the activity at 10 µM stood at 61.4% and the activity at 15 µM came to 42.8%. Also, the activity at 25 µM in assay [3] amounted to 17.4%.

With `CC(=O)NC1=C(Oc2ccc(OC3=C(NC(C)=O)C(=O)c4ccccc4C3=O)cc2)C(=O)c2ccccc2C1=O` [Analog F44, N,N′-((1,4-phenylenebis(oxy))bis(1,4-dioxo-1,4-dihydronaphthalene-3,2-diyl))diacetamide], in assay [3], the activity at 2 µM came out at 106%, the activity at 3 µM worked out at 102%, the activity at 4 µM was 69% and the activity at 5 µM turned out to be 58.6%. In addition, in assay [3], the activity at 6 µM was 50.5%, the activity at 7 µM turned out to be 45.4%, the activity at 10 µM amounted to 38.7% and the activity at 15 µM turned out to be 20.9%. In addition, the activity at 25 µM in assay [3] turned out to be 17.1%.
